Bridge positions count the residues as written; N and C are the ends. Square brackets hold non-standard residues; d marks the D form. Peptide text beside a SMILES is read from it. Pro(4R-NH2) = N[C@H]1CN[C@H](C(=O)O)C1; Gly(N-2-aminoethyl) = NCCNCC(=O)O; Cha = N[C@@H](CC1CCCCC1)C(=O)O; Gly(N(CH2)3NH2) = NCCCNCC(=O)O; Pen = CC(C)(S)[C@H](N)C(=O)O; dDab = NCC[C@@H](N)C(=O)O; Nle = CCCC[C@H](N)C(=O)O; Orn = NCCC[C@H](N)C(=O)O; Dab = NCC[C@H](N)C(=O)O
Tests used:
[1] = tested on: Klebsiella pneumoniae SSI3010; conditions: SSI3010
Summary of the method: (§1)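 Activity is measured against peptides serially diluted two-fold in water with 0.002% final Polysorbate 80. The cells are in cation-adjusted MHII broth at roughly 5×10^5 CFU/mL, prepared from a 0.5 McFarland suspension in 0.85% NaCl.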

[2] = tested on: Escherichia coli ATCC 25922; conditions: ATCC 25922
Summary of the method: as §1

[3] = tested on: Escherichia coli MCR-1 Af 45; conditions: MCR-1 Af 45
Summary of the method: as §1

[4] = tested on: human red blood cells (hRBC); test: Hemolysis of human red blood cells; type: cell-based; conditions: red cells of human, 1 h
Summary of the method: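 PBS-washed human red blood cells (20% v/v) were incubated with peptide at 200 μg/mL for 1 h at 37 °C with shaking. Supernatant OD was read at 540 nm after 8-fold dilution. Hemolysis is expressed as percent of the water control.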

| SMILES | Klebsiella pneumoniae SSI3010 MIC [1] | Escherichia coli ATCC 25922 MIC [2] | Escherichia coli MCR-1 Af 45 MIC [3] | Hemolysis at 0.2 g/L [4] |
| --- | --- | --- | --- | --- |
| CCCC[C@H](NC(=O)[C@H](CCCNC(=N)N)NC(=O)[C@H](CCN)NC(=O)[C@@H]1CSSC(C)(C)[C@H](NC(=O)[C@H](Cc2ccc(O)cc2)NC(=O)[C@@H](NC(=O)[C@@H](NC(=O)CN(CCN)C(=O)[C@@H](NC(=O)CNCCN)C(C)C)[C@@H](C)CC)[C@@H](C)O)C(=O)N[C@@H](CC(N)=O)C(=O)N[C@@H](CCCNC(=N)N)C(=O)N[C@@H](CCN)C(=O)N[C@@H]([C@@H](C)O)C(=O)N[C@H](CCN)C(=O)N[C@@H](CCCCN)C(=O)N1)C(=O)O [Example 12, Ndab-Val-Ndab-Ile-Thr-Tyr-Pen-Asn-Arg-Dab-Thr-^DDab-Lys-Cys-Dab-Arg-Nle] (H-[Gly(N-2-aminoethyl)]V[Gly(N-2-aminoethyl)]ITY[Pen]NR[Dab]T[dDab]KC[Dab]R[Nle]-OH; disulfide 7-14) | 0.25 mg/L | 0.25 mg/L | 0.0625 mg/L | 0% |
| CCCC[C@H](NC(=O)[C@H](CCCNC(=N)N)NC(=O)[C@H](CCN)NC(=O)[C@@H]1CSSC(C)(C)[C@H](NC(=O)[C@H](Cc2ccc(O)cc2)NC(=O)[C@@H](NC(=O)[C@@H](NC(=O)CN(CCN)C(=O)[C@@H](NC(=O)CNCCN)C(C)C)[C@@H](C)CC)[C@@H](C)CC)C(=O)N[C@@H](CC(N)=O)C(=O)N[C@@H](CCCNC(=N)N)C(=O)N[C@@H](CCN)C(=O)N[C@@H]([C@@H](C)O)C(=O)N[C@H](CCN)C(=O)N[C@@H](CCCCN)C(=O)N1)C(=O)O [Example 13, Ndab-Val-Ndab-Ile-Ile-Tyr-Pen-Asn-Arg-Dab-Thr-^DDab-Lys-Cys-Dab-Arg-Nle] (H-[Gly(N-2-aminoethyl)]V[Gly(N-2-aminoethyl)]IIY[Pen]NR[Dab]T[dDab]KC[Dab]R[Nle]-OH; disulfide 7-14) | 0.25 mg/L | 0.125 mg/L | 0.125 mg/L | 0% |
| CCCC[C@H](NC(=O)[C@H](CCCNC(=N)N)NC(=O)[C@H](CCN)NC(=O)[C@@H]1CSSC(C)(C)[C@H](NC(=O)[C@H](Cc2ccc(O)cc2)NC(=O)[C@@H](NC(=O)[C@@H](NC(=O)CN(CCCN)C(=O)[C@@H](NC(=O)CNCCCN)C(C)C)[C@@H](C)CC)[C@@H](C)CC)C(=O)N[C@@H](CC(N)=O)C(=O)N[C@@H](CCCNC(=N)N)C(=O)N[C@@H](CCN)C(=O)N[C@@H]([C@@H](C)O)C(=O)N[C@H](CCN)C(=O)N[C@@H](CCCCN)C(=O)N1)C(=O)O [Example 14, Norn-Val-Norn-Ile-Ile-Tyr-Pen-Asn-Arg-Dab-Thr-^DDab-Lys-Cys-Dab-Arg-Nle] (H-[Gly(N(CH2)3NH2)]V[Gly(N(CH2)3NH2)]IIY[Pen]NR[Dab]T[dDab]KC[Dab]R[Nle]-OH; disulfide 7-14) | 0.25 mg/L | 0.25 mg/L | 0.25 mg/L | 0% |
| CCCC[C@H](NC(=O)[C@H](CCCNC(=N)N)NC(=O)[C@H](CCCN)NC(=O)[C@@H]1CSSC(C)(C)[C@H](NC(=O)[C@H](Cc2ccc(O)cc2)NC(=O)[C@@H](NC(=O)[C@@H](NC(=O)CN(CCN)C(=O)[C@@H](NC(=O)CNCCN)C(C)C)[C@@H](C)CC)[C@@H](C)CC)C(=O)N[C@@H](CC(N)=O)C(=O)N[C@@H](CCCNC(=N)N)C(=O)N[C@@H](CCN)C(=O)N[C@@H]([C@@H](C)O)C(=O)N[C@H](CCN)C(=O)N[C@@H](CCCCN)C(=O)N1)C(=O)O [Example 15, Ndab-Val-Ndab-Ile-Ile-Tyr-Pen-Asn-Arg-Dab-Thr-^DDab-Lys-Cys-Orn-Arg-Nle] (H-[Gly(N-2-aminoethyl)]V[Gly(N-2-aminoethyl)]IIY[Pen]NR[Dab]T[dDab]KC[Orn]R[Nle]-OH; disulfide 7-14) | 0.25 mg/L | 0.125 mg/L | 0.125 mg/L | 0% |
| CCCC[C@H](NC(=O)[C@H](CCCNC(=N)N)NC(=O)[C@H](CCCN)NC(=O)[C@@H]1CSSC(C)(C)[C@H](NC(=O)[C@H](Cc2ccc(O)cc2)NC(=O)[C@@H](NC(=O)[C@@H](NC(=O)CN(CCN)C(=O)[C@@H](NC(=O)CNCCN)C(C)C)[C@@H](C)CC)[C@@H](C)CC)C(=O)N[C@@H](CC(N)=O)C(=O)N[C@@H](CCCNC(=N)N)C(=O)N[C@@H](CCN)C(=O)N[C@@H]([C@@H](C)O)C(=O)N[C@H](CCN)C(=O)N[C@@H](CCCN)C(=O)N1)C(=O)O [Example 16, Ndab-Val-Ndab-Ile-Ile-Tyr-Pen-Asn-Arg-Dab-Thr-^DDab-Orn-Cys-Orn-Arg-Nle] (H-[Gly(N-2-aminoethyl)]V[Gly(N-2-aminoethyl)]IIY[Pen]NR[Dab]T[dDab][Orn]C[Orn]R[Nle]-OH; disulfide 7-14) | 0.25 mg/L | 0.125 mg/L | 0.125 mg/L | 0% |
| CC[C@H](C)[C@H](NC(=O)[C@@H](NC(=O)[C@@H]1C[C@@H](N)CN1C(=O)[C@@H](NC(=O)[C@@H]1CCCN1)C(C)C)[C@@H](C)CC)C(=O)N[C@@H](Cc1ccc(O)cc1)C(=O)N[C@@H]1C(=O)N[C@@H](CC(N)=O)C(=O)N[C@@H](CCCNC(=N)N)C(=O)N[C@@H](CCN)C(=O)N[C@@H]([C@@H](C)O)C(=O)N[C@H](CCN)C(=O)N[C@@H](CCCCN)C(=O)N[C@H](C(=O)N[C@@H](CCC(N)=O)C(=O)N[C@@H](CCCNC(=N)N)C(=O)N[C@@H](CC2CCCCC2)C(=O)O)CSSC1(C)C [Example 17, Pro-Val-Pro((4R)NH2)-Ile-Ile-Tyr-Pen-Asn-Arg-Dab-Thr-^DDab-Lys-Cys-Gln-Arg-Cha] (HELM PEPTIDE1{P.V.[N[C@@H]1C[C@@H](C(=O)[*:2])N([*:1])C1].I.I.Y.[Pen].N.R.[Dab].T.[NCC[C@@H](N[*:1])C(=O)[*:2]].K.C.Q.R.[Cha]}$PEPTIDE1,PEPTIDE1,7:R3-14:R3$$$V2.0) | 0.25 mg/L | 0.125 mg/L | 0.125 mg/L | 0% |
| CC[C@H](C)[C@H](NC(=O)[C@@H](NC(=O)[C@@H]1C[C@@H](N)CN1C(=O)[C@@H](NC(=O)[C@@H]1C[C@@H](N)CN1)C(C)C)[C@@H](C)CC)C(=O)N[C@@H](Cc1ccc(O)cc1)C(=O)N[C@@H]1C(=O)N[C@@H](CC(N)=O)C(=O)N[C@@H](CCCNC(=N)N)C(=O)N[C@@H](CCN)C(=O)N[C@@H]([C@@H](C)O)C(=O)N[C@H](CCN)C(=O)N[C@@H](CCCCN)C(=O)N[C@H](C(=O)N[C@@H](CCC(N)=O)C(=O)N[C@@H](CCCNC(=N)N)C(=O)N[C@@H](CC2CCCCC2)C(=O)O)CSSC1(C)C [Example 18, Pro((4R)NH2)-Val-Pro((4R)NH2)-Ile-Ile-Tyr-Pen-Asn-Arg-Dab-Thr-^DDab-Lys-Cys-Gln-Arg-Cha] (H-[Pro(4R-NH2)]V[Pro(4R-NH2)]IIY[Pen]NR[Dab]T[dDab]KCQR[Cha]-OH; disulfide 7-14) | 0.25 mg/L | 0.25 mg/L | 0.125 mg/L | 0% |
| CC[C@H](C)[C@H](NC(=O)[C@@H](NC(=O)[C@@H]1C[C@@H](N)CN1C(=O)[C@@H](NC(=O)[C@@H]1CCCN1)C(C)C)[C@@H](C)CC)C(=O)N[C@@H](Cc1ccc(O)cc1)C(=O)N[C@@H]1C(=O)N[C@@H](CC(N)=O)C(=O)N[C@@H](CCCNC(=N)N)C(=O)N[C@@H](CCN)C(=O)N[C@@H]([C@@H](C)O)C(=O)N[C@H](CCN)C(=O)N[C@@H](CCCCN)C(=O)N[C@H](C(=O)N[C@@H](CCN)C(=O)N[C@@H](CCCNC(=N)N)C(=O)N[C@@H](CC2CCCCC2)C(=O)O)CSSC1(C)C [Example 19, Pro-Val-Pro((4R)NH2)-Ile-Ile-Tyr-Pen-Asn-Arg-Dab-Thr-^DDab-Lys-Cys-Dab-Arg-Cha] (HELM PEPTIDE1{P.V.[N[C@@H]1C[C@@H](C(=O)[*:2])N([*:1])C1].I.I.Y.[Pen].N.R.[Dab].T.[NCC[C@@H](N[*:1])C(=O)[*:2]].K.C.[Dab].R.[Cha]}$PEPTIDE1,PEPTIDE1,7:R3-14:R3$$$V2.0) | 0.0625 mg/L | 0.0625 mg/L | ≤0.03125 mg/L | 0% |
| CC[C@H](C)[C@H](NC(=O)[C@@H](NC(=O)[C@@H]1C[C@@H](N)CN1C(=O)[C@@H](NC(=O)[C@@H]1C[C@@H](N)CN1)C(C)C)[C@@H](C)CC)C(=O)N[C@@H](Cc1ccc(O)cc1)C(=O)N[C@@H]1C(=O)N[C@@H](CC(N)=O)C(=O)N[C@@H](CCCNC(=N)N)C(=O)N[C@@H](CCN)C(=O)N[C@@H]([C@@H](C)O)C(=O)N[C@H](CCN)C(=O)N[C@@H](CCCCN)C(=O)N[C@H](C(=O)N[C@@H](CCN)C(=O)N[C@@H](CCCNC(=N)N)C(=O)N[C@@H](CC2CCCCC2)C(=O)O)CSSC1(C)C [Example 20, Pro((4R)NH2)-Val-Pro((4R)NH2)-Ile-Ile-Tyr-Pen-Asn-Arg-Dab-Thr-^DDab-Lys-Cys-Dab-Arg-Cha] (H-[Pro(4R-NH2)]V[Pro(4R-NH2)]IIY[Pen]NR[Dab]T[dDab]KC[Dab]R[Cha]-OH; disulfide 7-14) | 0.125 mg/L | ≤0.03125 mg/L | ≤0.03125 mg/L | 1% |
